The source of these data is patent US20230250054A1, “SELECTIVE HISTONE DEACETYLASE 6 INHIBITORS” (The Board of Trustees of the University of Illinois, priority 2020, published 2023).

Entries after “also recorded” stand apart in the source; their conditions may differ. Some results are limits rather than exact numbers.

The half-life is how long it takes for the measured level to halve.

The test system of data set [1] is Ac-α-tubulin. As to the kind of experiment: Immunoblot of Ac-α-tubulin in WM164 melanoma cells. The format is cell-based, human. The conditions noted are these: 0.1 to 10 μM, overnight. On the procedure: (§1) The SM1 murine melanoma cells were obtained from Dr. A. Ribas at the University of California, Los Angeles. WM164 human melanoma cells were obtained from ATCC. The cells were cultured in an incubator in RPMI 1640, 1% penicillin-streptomycin, and 10% fetal bovine serum at 37° C. with 5% CO2. […] For STAT3 phosphorylation assays, cells were pre-treated with or without HDAC6i (5 μM) for overnight followed by treatment with recombinant human IL-6 (Biolegend) for 20 min. PBS was added as a control. RAW 264.7 macrophages were purchased from ATCC and cultured in DMEM medium supplemented with 10% FBS, 1% non-essential amino acids, and 2-mercaptoethanol (50 μM). […] Cytotoxicity assay was performed using CellTox Green (Promega, Cat #G8731) following the manufacturer's instructions, and fluorescence readings were obtained on Spectramax i3 (Molecular Devices) multimode plate reader at wavelengths EX 485 nm and EM 520 nm. […]
(§2) The cells were harvested and lysed with RIPA buffer (ThermoScientific, 89900) containing protease and phosphatase inhibitors (ThermoScientific, 78440) by sonication in Bioruptor (Diagenode) for 8 cycles of 30 seconds ON and 30 seconds OFF on high setting. To assess the expression of proteins, total protein samples were heat-denatured in SDS sample loading buffer, and 15-20 μg of protein was analysed on 4-20% SDS-PAGE gels (Bio-Rad, 456-1093). […]
(Immunoblotting shows a protein as a band on a membrane.)

Data set [2] deals with Ac—H3. As to the kind of experiment: Immunoblot of Ac-H3 in WM164 melanoma cells. The note with it: 0.1 to 10 μM, overnight. The format is cell-based, human. As to the method:
as §1, §2

Data set [3] can be described thus: in vitro. The conditions noted are these: rat, liver microsomes.
A short description of data set [4]: physchem. The note with it: PBS.
Data set [5] relates to SM1 melanoma tumors. Briefly: Syngeneic SM1 murine melanoma model, tumor growth. The format is in vivo. The conditions noted are these: C57BL/6 mice with SM1 tumors; Suprastat 25 mg/kg IP, anti-PD1 15 mg/kg IP; vs control (PBS).
Data set [6] relates to IL10 gene. Briefly: IL10 gene expression by quantitative PCR in bone marrow-derived macrophages. The note with it: mouse bone marrow-derived macrophages, 5 μM, vs vehicle, mRNA quantification. The format is cell-based. As to the method: Total RNA was isolated from cells following the manufacturer's instructions of QIAzol (Qiagen, 79306). RNA quantification was done using NanoDrop One spectrophotometer (NanoDrop Technologies). Samples with absorbance at 260/280 ratios over 1.9 were used for cDNA synthesis with iScript cDNA synthesis kit (Bio-Rad, 1708891). Synthesized cDNA from 1 μg of total RNA was diluted 1:10 with nuclease-free water. The quantitative PCR analysis was performed using iQ SYBR Green Supermix (Bio-Rad, 1708882) on CFX96 real-time system (Bio-Rad). Gene expression analysis was performed using 2^−ΔΔCt method, and target mRNA levels were normalized to GAPDH expression. Cycling conditions were used as per manufacturer's instructions. Single PCR product amplification was confirmed by melting curve analysis in all the experiments performed. The sequence of primers used in the analysis are as follows: […]
Immune cells, such as macrophages, are a major cellular component of the tumor microenvironment. Tumor-associated macrophages are often tumor promoting by secreting anti-inflammatory cytokines such as TGFβ and IL-10. It was previously established that HDAC6 forms a complex with STAT3, and either pharmacological inhibition or shRNA mediated knockdown of HDAC6 decreased STAT3 recruitment at the IL10 promoter region in antigen-presenting cells (see, e.g., Cheng et al., J. Immunol. 193: 2850-2862 (2014)). […]

For data set [7], the system named is Ac-α-tubulin. Briefly: Immunoblot of Ac-α-tubulin in RAW 264.7 macrophages. The note with it: 1, 5, and 10 μM, overnight, listed as Suprastat. The format is cell-based. On the procedure:
as §1, §2

Data set [8] deals with STAT3. As to the kind of experiment: IL-6 induced STAT3 phosphorylation in WM164 melanoma cells. In kind it is cell-based, human. The conditions noted are these: WM164 cells pre-treated with 5 μM, then IL-6 (30 ng/mL) for 20 min, vs IL-6 alone. As to the method: as §1, §2
Data set [9] concerns immune cells. Briefly: Immune cell phenotyping by flow cytometry in the SM1 melanoma model. In kind it is in vivo, C57BL/6 mice. On the procedure:
To understand the immunomodulatory properties of Suprastat, a comprehensive immune cell phenotyping by flow cytometry was performed. […] (see, e.g., Knox et al., Sci. Rep. 9: 6136 (2019)). […] A significant change in immunosuppressive T-regs (FIG. 6F) was not observed. […] (see, e.g., Knox et al., Sci. Rep. 9: 6136 (2019)).

The subject of data set [10] is SM1 murine melanoma cells. As to the kind of experiment: CellTox Green cytotoxicity assay in SM1 cells. In kind it is cell-based. The conditions noted are these: 24 h. As to the method: The SM1 murine melanoma cells were obtained from Dr. A. Ribas at the University of California, Los Angeles. WM164 human melanoma cells were obtained from ATCC. The cells were cultured in an incubator in RPMI 1640, 1% penicillin-streptomycin, and 10% fetal bovine serum at 37° C. with 5% CO2. […] For STAT3 phosphorylation assays, cells were pre-treated with or without HDAC6i (5 μM) for overnight followed by treatment with recombinant human IL-6 (Biolegend) for 20 min. PBS was added as a control. RAW 264.7 macrophages were purchased from ATCC and cultured in DMEM medium supplemented with 10% FBS, 1% non-essential amino acids, and 2-mercaptoethanol (50 μM). RAW macrophages were treated with 1 μM, 5 μM, and 10 μM of Suprastat overnight before collecting the lysates for immunoblot assay. Cytotoxicity assay was performed using CellTox Green (Promega, Cat #G8731) following the manufacturer's instructions, and fluorescence readings were obtained on Spectramax i3 (Molecular Devices) multimode plate reader at wavelengths EX 485 nm and EM 520 nm. SM1 cells were treated with compounds at various concentrations for 24 h to determine cytotoxicity.

`NCc1ccc(NC(=O)N(CCCCO)Cc2ccc(C(=O)NO)cc2)cc1` [Compound 6a, 4-((3-(4-(Aminomethyl)phenyl)-1-(4-hydroxybutyl)ureido)methyl)-N-hydroxybenz-amide]: the “levels of acetylated α-tubulin (Ac-α-tubulin)” value in data set [1] is recorded as “highest Ac-α-tubulin level”. In addition, in data set [2], the “levels of acetylated histone H3 (Ac—H3)” value is “slight increase in the levels of Ac—H3”. In [3], this molecule registered a half-life of 2.88 h. The molecule also registered a half-life in [4] of over 24 h. Moreover, the “tumor burden (tumor volume)” value in data set [5] was “reduced the tumor burden”. The “expression of IL10 gene” value in data set [6] is given as “decreased expression of IL10 gene”. For the same molecule, the “levels of Ac-α-tubulin in RAW 264.7 macrophages” value in data set [7] was “dose-dependent effect; also recorded: dose-dependent increase in the levels of Ac-α-tubulin”. Further, in data set [8], the “Y705 phosphorylation of STAT3” value is “decreased Y705 phosphorylation of STAT3”. In data set [9] (flow cytometry), the “F4/80+CD206+ pro-tumor M2 macrophages” value is “significantly decreased”, the “natural killer (NK) cells” value is on record as “positive trend” and the “percentage of CD8+ central memory (CM) cells” value is given as “increase in the percentage of CD8+ central memory (CM) cells”. Besides, in [9] (relative to control and anti-PD1 groups), the M1/M2 ratio result is “significantly higher M1/M2 ratio”.

For the molecule `CCCCN(Cc1ccc(C(=O)NO)cc1)C(=O)Nc1ccc(CN)cc1` [Compound 6b, 4-((3-(4-(Aminomethyl)phenyl)-1-butylureido)methyl)-N-hydroxybenzamide], in [10], the “concentration at which cytotoxicity starts” value came to 10 µM.
